Test results published in patent publication US5459260A, “Tricyclic or tetracyclic carbapenem compounds, their production and use” (Takeda Chemical Industries, Ltd., priority 1991, dated 1995).

How the values were obtained:
Assay in all cases: MIC by the agar dilution method
Assay type in all cases: cell-based
[1] = test system: S. pyogenes S-8; conditions: Streptococcus pyogenes, S8, 10^8 CFU/ml, Trypticase soy agar, 37° C. overnight
Method: (§1) The MICs of the test compound were determined by the agar dilution method. Thus, 1.0 ml portions of serially diluted aqueous solutions of the test compound were poured in petri dishes and admixed with 9.0 ml portions of Trypticase soy agar. Then, a suspension (about 10^8 CFU/ml) of each test strain was smeared on each agar plate and incubated at 37° C. overnight. The lowest concentration of the test compound inhibiting growth of the test strain 100% was regarded as the minimal inhibitory concentration, MIC.

[2] = test system: E. coli NIHJ O-111; conditions: Escherichia coli, NIHJO111, 10^8 CFU/ml, Trypticase soy agar, 37° C. overnight
Method: as §1

[3] = test system: S. aureus 308A-1; conditions: Staphylococcus aureus, 308A1, 10^8 CFU/ml, Trypticase soy agar, 37° C. overnight
Method: as §1

[4] = test system: E. coli NIHJ JC-2; conditions: Escherichia coli, NIHJJC2, 10^8 CFU/ml, Trypticase soy agar, 37° C. overnight
Method: as §1

[5] = test system: S. aureus 1840; conditions: Staphylococcus aureus, 10^8 CFU/ml, Trypticase soy agar, 37° C. overnight
Method: as §1

[6] = test system: C. freundii IFO 12681; conditions: Citrobacter freundii, IFO12681, 10^8 CFU/ml, Trypticase soy agar, 37° C. overnight
Method: as §1

[7] = test system: K. oxytoca TN 1711; conditions: Klebsiella oxytoca, TN1711, 10^8 CFU/ml, Trypticase soy agar, 37° C. overnight
Method: as §1

[8] = test system: S. pneumoniae Type I; conditions: Streptococcus pneumoniae, 10^8 CFU/ml, Trypticase soy agar, 37° C. overnight
Method: as §1

[9] = test system: C. freundii TN 474; conditions: Citrobacter freundii, TN474, 10^8 CFU/ml, Trypticase soy agar, 37° C. overnight
Method: as §1

[10] = test system: S. aureus FDA 209P; conditions: Staphylococcus aureus, FDA209P, 10^8 CFU/ml, Trypticase soy agar, 37° C. overnight
Method: as §1

[11] = test system: S. mitis America; conditions: Streptococcus mitis, 10^8 CFU/ml, Trypticase soy agar, 37° C. overnight
Method: as §1

[12] = test system: K. pneumoniae DT; conditions: Klebsiella pneumoniae, 10^8 CFU/ml, Trypticase soy agar, 37° C. overnight
Method: as §1

[13] = test system: P. vulgaris IFO 3988; conditions: Proteus vulgaris, IFO3988, 10^8 CFU/ml, Trypticase soy agar, 37° C. overnight
Method: as §1

[14] = test system: P. mirabilis IFO 3849; conditions: Proteus mirabilis, IFO3849, 10^8 CFU/ml, Trypticase soy agar, 37° C. overnight
Method: as §1

[15] = test system: E. cloacae IFO 12937; conditions: Enterobacter cloacae, IFO12937, 10^8 CFU/ml, Trypticase soy agar, 37° C. overnight
Method: as §1

[16] = test system: C. diphtheriae Tronto; conditions: Corynebacterium diphtheriae, 10^8 CFU/ml, Trypticase soy agar, 37° C. overnight
Method: as §1

[17] = test system: S. marcescens IFO 12648; conditions: Serratia marcescens, IFO12648, 10^8 CFU/ml, Trypticase soy agar, 37° C. overnight
Method: as §1

[18] = test system: E. cloacae TN 583; conditions: Enterobacter cloacae, TN583, 10^8 CFU/ml, Trypticase soy agar, 37° C. overnight
Method: as §1

[19] = test system: E. coli NIHJ T-7; conditions: Escherichia coli, NIHJT7, 10^8 CFU/ml, Trypticase soy agar, 37° C. overnight
Method: as §1

[20] = test system: S. pyogenes E-14; conditions: Streptococcus pyogenes, E14, 10^8 CFU/ml, Trypticase soy agar, 37° C. overnight
Method: as §1

[21] = test system: M. morganii IFO 3168; conditions: Morganella morganii, IFO3168, 10^8 CFU/ml, Trypticase soy agar, 37° C. overnight
Method: as §1

Measured: MIC

C[C@@H](O)[C@H]1C(=O)N2C(C(=O)O)=C3[C@@H](CCO)CCO[C@@H]3[C@H]12 [Example 19]
12.5 µg/mL: [18]
< 0.1 µg/mL: [1] | [2] | [3] | [4] | [8] | [10] | [11] | [20]
1.56 µg/mL: [7] | [19]
0.2 µg/mL: [5] | [6] | [12] | [16]
0.78 µg/mL: [13] | [17] | [21]
0.39 µg/mL: [14]
6.25 µg/mL: [9] | [15]
